Experimental findings from patent US8546579B2, “Bicycloheteroaryl compounds as P2X7 modulators and uses thereof” (Evotec (US) Inc., priority 2006, dated 2013) are described below.

The target of the assay is T1, P2X7 receptor (Homo sapiens, UniProt Q99572).
T1 construct: host or cells: THP-1 cells differentiated with LPS and IFN-γ
T1 sequence (Q99572 1-595): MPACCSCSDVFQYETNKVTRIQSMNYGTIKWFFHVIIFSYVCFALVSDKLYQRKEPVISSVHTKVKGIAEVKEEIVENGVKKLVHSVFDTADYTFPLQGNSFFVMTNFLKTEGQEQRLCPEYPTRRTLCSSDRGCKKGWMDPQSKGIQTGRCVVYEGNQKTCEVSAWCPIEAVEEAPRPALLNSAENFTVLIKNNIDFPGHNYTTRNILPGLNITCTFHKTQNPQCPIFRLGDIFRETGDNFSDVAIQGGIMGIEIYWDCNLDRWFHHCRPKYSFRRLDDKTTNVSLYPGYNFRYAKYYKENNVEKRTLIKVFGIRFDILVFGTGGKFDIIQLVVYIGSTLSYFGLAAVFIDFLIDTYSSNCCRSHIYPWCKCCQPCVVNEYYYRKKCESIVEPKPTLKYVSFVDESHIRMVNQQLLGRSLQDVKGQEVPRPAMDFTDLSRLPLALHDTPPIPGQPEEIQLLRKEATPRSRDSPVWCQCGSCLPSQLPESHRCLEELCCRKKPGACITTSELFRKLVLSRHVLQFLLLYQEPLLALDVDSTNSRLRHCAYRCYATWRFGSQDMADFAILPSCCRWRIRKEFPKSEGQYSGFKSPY
Nature of the assay: IL-1β release assay in differentiated THP-1 cells stimulated with BzATP (Example 9). Set-up: inhibition: dose or concentration left out as unconfirmed. The following applies: for inhibition: THP-1, read-out: IL-1β % Inhib.; for inhibition at 0.1 µM: 0.1 μM compound; for inhibition at 0.1 µM / inhibition at 0.3 µM: differentiated THP-1 cells, BzATP 250 uM; for inhibition at 0.3 µM: 0.3 μM compound, read-out: IL-1β % Inhib. @ 0.3 μM; for IC50: THP-1 cells, BzATP-stimulated IL-1β release, four parameter logistic fit. Format: cell-based. The gist of the method:
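THP-1 cells differentiated 16 h with LPS and IFN-γ (100 ng/mL each), re-primed 2 h with LPS, then compound-pretreated 30 min before 250 uM BzATP for 45 min. Supernatant IL-1β quantified by ELISA; background-adjusted percent inhibition fitted to four-parameter logistic for IC50.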

The structures appear in SMILES notation. Where two headings read alike, the source gives them in different places. A value given as a limit tells only on which side of the number the result lay.

As to `Cc1ccc(Cl)cc1C(=O)Nc1cccc2c(=O)n(CCCN3CCCC3=O)ccc12` [Compound 1541], the inhibition fell in the range of 0 to 25%.
Consider `COc1ccccc1CCC(=O)Nc1cccc2c(=O)n(Cc3cccnc3)ccc12` [Compound 1348], for which, under “symbols * to ****, read-out: IL-1β % Inhib. (asterisk symbols: at 0.1 μM)”, the inhibition at 0.1 µM lay in the range of 0 to 25%.
For `COc1c(C)cc(C(=O)Nc2cccc3c(=O)n(Cc4cccnc4)ccc23)cc1C` [Compound 1361], the inhibition at 0.3 µM (symbols + to ++++) lay within 0 to 25%.
For the compound `COc1ccc(C(=O)Nc2cccc3c(=O)n(CCN(C)C)ccc23)c(C)c1` [Compound 1398], the inhibition was 0 to 25%.
On to `CC(C)(C)Cn1ccc2c(NC(=O)c3ccc4ccccc4c3)cccc2c1=O` [Compound 1251], for which the inhibition at 0.3 µM (symbols + to ++++) fell in the range of 0 to 25%.
With `COc1ccc(CC(=O)Nc2cccc3c(=O)n(CCN(C)C)ccc23)c(OC)c1` [Compound 1022], the IC50 (as a rule, the point on the concentration scale where inhibition reaches its midpoint) was above 1000 nM. Besides, the inhibition at 0.3 µM ('+' class symbols) fell in the range of 0 to 25%.
For `Cn1ccc2c(NC(=O)c3ccc4c(c3)OCCCO4)cccc2c1=O` [Compound 1305], where the note is “symbols + to ++++”, the inhibition at 0.3 µM was in the range of 0 to 25%.
Turning to `COc1ccc(C(=O)Nc2cccc3c(=O)n(Cc4ccc(OC(F)(F)F)cc4)ccc23)c(C)c1` [Compound 1548], the inhibition is 0 to 25%.
As to `Cn1ccc2c(NC(=O)CC3CC4CC[C@H]3C4)cccc2c1=O` (stereo partly drawn) [Compound 1302], the inhibition at 0.3 µM (symbols + to ++++) was in the range of 0 to 25%.
`O=C(Nc1cccc2c(=O)n(CC3CCOCC3)ccc12)c1cc2cc(Cl)ccc2o1` [Compound 1131]: for the setting “'+' class symbols”, the inhibition at 0.3 µM was in the range of 0 to 25%.
In the case of `Cc1cc(Cl)ccc1C(=O)Nc1cccc2c(=O)n(CC3CCN(C)CC3)ccc12` [Compound 1478], the inhibition was in the range of 0 to 25%.
In turn, `CN(C)CCn1ccc2c(NC(=O)Cc3ccc(F)cc3)cccc2c1=O` [Compound 1018] had an IC50 above 1000 nM. For the same compound, the inhibition at 0.3 µM ('+' class symbols) was 0 to 25%.
As to `Cc1cccc(C(=O)Nc2cccc3c(=O)n(CC4CCN(C)CC4)ccc23)c1Cl` [Compound 1489], the inhibition is 0 to 25%.
As to `COc1ccc(CC(=O)Nc2cccc3c(=O)n(Cc4ccc(OC(F)(F)F)cc4)ccc23)cc1C` [Compound 1605], the inhibition at 0.1 µM ("*" class symbols, read-out: IL-1β % Inhib. ("*" symbols: at 0.1 μM)) lay in the range of 0 to 25%.
With `Cc1cccc(CC(=O)Nc2cccc3c(=O)n(CC(C)(C)C)ccc23)c1` [Compound 1259], for the setting “symbols + to ++++”, the inhibition at 0.3 µM fell in the range of 0 to 25%.
`COCCn1ccc2c(NC(=O)c3cc(C)ccc3C)cccc2c1=O` [Compound 1427]: the inhibition was 26 to 50%.
Turning to `CC(C)(C)Cn1ccc2c(NC(=O)c3ccc4c(c3)OCCCO4)cccc2c1=O` [Compound 1273], under “symbols + to ++++”, the inhibition at 0.3 µM lay in the range of 0 to 25%.
`COCCn1ccc2c(NC(=O)c3cccc(Cl)c3C)cccc2c1=O` [Compound 1330]: under “symbols + to ++++”, the inhibition at 0.3 µM was 0 to 25%.
Regarding `CN(C)CCn1ccc2c(NC(=O)c3ccc4c(c3)OCCCO4)cccc2c1=O` [Compound 1170], the inhibition at 0.3 µM ('+' class symbols) was 0 to 25%.
`Cc1cccc(C(=O)Nc2cccc3c(=O)n(CCN4CCOCC4)ccc23)c1` [Compound 1197]: the inhibition at 0.1 µM ('*' class symbols, read-out: IL-1β % Inhib. (asterisk classes, 0.1 μM)) was in the range of 0 to 25%.
Regarding `COCCn1ccc2c(NC(=O)c3cc(C)c(OC)c(C)c3)cccc2c1=O` [Compound 1323], the inhibition at 0.3 µM (symbols + to ++++) is 0 to 25%.
In the case of `COc1c(C)cc(C(=O)Nc2cccc3c(=O)n(Cc4ccc(OC(F)(F)F)cc4)ccc23)cc1C` [Compound 1590], the inhibition was 26 to 50%.
As to `COCCn1ccc2c(NC(=O)c3ccc(CC(C)C)cc3)cccc2c1=O` [Compound 1343], for the setting “symbols + to ++++”, the inhibition at 0.3 µM lay within 0 to 25%.
On to `Cc1cccc(CCC(=O)Nc2cccc3c(=O)n(CCN4CCOCC4)ccc23)c1` [Compound 1237], for which the inhibition at 0.3 µM (symbols + to ++++) is 26 to 50%.
As to `COCCn1ccc2c(NC(=O)C3CCC(C)CC3)cccc2c1=O` (stereo not drawn) [Compound 1061], the inhibition at 0.3 µM ('+' class symbols) was in the range of 0 to 25%.
Same read-out and setting: then `Cc1ccc(CC(=O)Nc2cccc3c(=O)n(CC4CCOCC4)ccc23)cc1` [Compound 1107], with 0 to 25%.
With `Cc1cc(C)cc(CC(=O)Nc2cccc3c(=O)n(CCN4CCOCC4)ccc23)c1` [Compound 1228], the inhibition at 0.3 µM (symbols + to ++++) is 0 to 25%.
As for `O=C(CC1C[C@@H]2CC[C@H]1C2)Nc1cccc2c(=O)n(CC3CCOCC3)ccc12` (stereo partly drawn) [Compound 1115], the inhibition at 0.3 µM ('+' class symbols) was 26 to 50%.
